Experimental data: patent US20230053437A1, “LIPID COMPOUNDS AND LIPID NANOPARTICLE COMPOSITIONS” (Suzhou Abogen Biosciences Co., Ltd., priority 2020, published 2023)

Key:
Type in all cases: physicochemical
[1] = Lipid nanoparticle size by dynamic light scattering (Malvern Zetasizer Nano ZS); details: LNP: cationic lipid/DSPC/cholesterol/PEG-lipid 50:10:38.5:1.5 with hEPO mRNA
Procedure: (§1) Briefly, a cationic lipid provided herein, DSPC, cholesterol, and PEG-lipid were solubilized in ethanol at a molar ratio of 50:10:38.5:1.5, and mRNA were diluted in 10 to 50 mM citrate buffer, pH=4. The LNPs were prepared at a total lipid to mRNA weight ratio of approximately 10:1 to 30:1 by mixing the ethanolic lipid solution with the aqueous mRNA solution at a volume ratio of 1:3 using a microfluidic apparatus, total flow rate ranging from 9-30 mL/min. Ethanol were thereby removed and replaced by DPBS using dialysis. Finally, the lipid nanoparticles were filtered through a […] sterile filter.
(§2) Lipid nanoparticle size were determined by dynamic light scattering using a Malvern Zetasizer Nano ZS (Malvern UK) using a 173° backscatter detection mode. The encapsulation efficiency of lipid nanoparticles were determined using a Quant-it Ribogreen RNA quantification assay kit (Thermo Fisher Scientific, UK) according to the manufacturer's instructions.

[2] = Encapsulation efficiency of lipid nanoparticles, Quant-it Ribogreen RNA quantification assay; details: LNP with hEPO mRNA
Procedure: as §1, §2

[3] = Apparent pKa of LNP formulations, TNS fluorescence assay; details: LNP cationic lipid/DSPC/cholesterol/DMG-PEG 50/10/38.5/1.5 mol %, pH 3 to 9
Procedure: As reported in literature, the apparent pKa of LNP formulations correlates with the delivery efficiency of LNPs for nucleic acids in vivo. The apparent pKa of each formulation was determined using an assay based on fluorescence of 2-(p-toluidino)-6-napthalene sulfonic acid (TNS). LNP formulations comprising of cationic lipid/DSPC/cholesterol/DMG-PEG (50/10/38.5/1.5 mol %) in PBS were prepared as described above. TNS was prepared as a 300 uM stock solution in distilled water. LNP formulations were diluted to 0.1 mg/ml total lipid in 3 mL of buffered solutions containing 50 mM sodium citrate, 50 mM sodium phosphate, 50 mM sodium borate, and 30 mM sodium chloride where the pH ranged from 3 to 9. An aliquot of the TNS solution was added to give a final concentration of 0.1 mg/ml and following vortex mixing fluorescence intensity was measured at room temperature in a Molecular Devices Spectramax iD3 spectrometer using excitation and mission wavelengths of 325 nm and 435 nm. A sigmoidal best fit analysis was applied to the fluorescence data and the pKa value was measured as the pH giving rise to half-maximal fluorescent intensity.

Row | SMILES | polydispersity [1] | size (nm) [1] | Encapsulation Efficiency [2] | Apparant Pka [3]
1 | CCCCCCCCCCCC(=O)OCC1(COC(=O)CCCCCCCCCCC)CCN(C(=O)CCN(CCCCCC)CCCNc2c(N(C)C)c(=O)c2=O)CC1 [Compound 49] | 0.291 | 87.3 nm | 95.8% | 4.76
2 | CCCCCCCCCCCC(=O)OCC1(COC(=O)CCCCCCCCCCC)CCN(C(=O)CCCN2CCCCC2)CC1 [Compound 40] | 0.066 | 84.7 nm | 92.4% | 9.27
3 | CCCCCCCCCCCC(=O)OCC1(COC(=O)CCCCCCCCCCC)CCN(CCCCO)CC1 [Compound 19] | 0.137 | 66.82 nm | 94.5% | 7.93
4 | CCCCCCCCCCCC(=O)OCC1(COC(=O)CCCCCCCCCCC)CCN(C(=O)CCN(CCC)CCO)CC1 [Compound 22] | 0.252 | 56.79 nm | 93.9% | 7.76
5 | CCCCCCCCCCCC(=O)OCC1(COC(=O)CCCCCCCCCCC)CCN(CCCCCO)CC1 [Compound 20] | 0.161 | 81.62 nm | 92.6% | 8.23
6 | CCCCCCCCCCCC(=O)OCC1(COC(=O)CCCCCCCCCCC)CCN(C(=O)CCN(C)CCCNc2c(N(C)C)c(=O)c2=O)CC1 [Compound 12] | 0.23 | 98.67 nm | 95.8% | 7.45
7 | CCCCCCCCC(CCCCCC)COC(=O)CCCCCC(=O)OCC1(COC(=O)CCCCCC(=O)OCC(CCCCCC)CCCCCCCC)CCN(C(=O)CCCN(C)C)CC1 (centres unmarked) [Compound 52] | 0.47 | 107.3 nm | 100.4% | 6.20
8 | CCCCC/C=C\C/C=C\CCCCCCCC(=O)OCC1(COC(=O)CCCCCCC/C=C\C/C=C\CCCCC)CCN(C(=O)CCN2CCCC2)CC1 [Compound 50] | 0.327 | 86.44 nm | 97.8% | 10.76
9 | CCCCCCCCCCCC(=O)OCC1(COC(=O)CCCCCCCCCCC)CCN(C(=O)CCCN2CCCCCC2)CC1 [Compound 41] | 0.15 | 90.15 nm | 96.1% | ~12.82
10 | CCCCCCCCCOC(=O)CCC1(CCC(=O)OCCCCCCCCC)CCN(C(=O)CCN(C)C)CC1 [Compound 63] | 0.113 | 82.74 nm | 97.4% | 7.859
11 | CCCCCCCCCCCC(=O)OCC1(COC(=O)CCCCCCCCCCC)CCN(C(=O)CCCN2CCCC2)CC1 [Compound 39] | 0.42 | 89.41 nm | 97.0% | 13.20
12 | CCCCCCCCCCCC(=O)OCC1(COC(=O)CCCCCCCCCCC)CCN(C(=O)CCN(CC)CCO)CC1 [Compound 3] | 0.165 | 64.67 nm | 96.4% | 7.58
13 | CCCCCCCCCCCC(=O)OCC1(COC(=O)CCCCCCCCCCC)CCN(C(=O)CCN(CCCC)CCCC)CC1 [Compound 30] | 0.056 | 92.03 nm | 80.1% | 6.77
14 | CCCCCCCCCCCCCCCC(=O)OCC1(COC(=O)CCCCCCCCCCCCCCC)CCN(C(=O)CCN(CCCCCC)CCCCCC)CC1 [Compound 34] | 0.127 | 110.4 nm | 74.0% | 5.90
15 | CCCCCCCCCCCC(=O)OCC1(COC(=O)CCCCCCCCCCC)CCN(C(=O)CCN(C)CCO)CC1 [Compound 2] | 0.079 | 80.24 nm | 92.5% | 7.29
16 | CCCCCCCCC(CCCCCC)COC(=O)CCCCCC(=O)OCC1(COC(=O)CCCCCC(=O)OCC(CCCCCC)CCCCCCCC)CCN(C(=O)CCN2CCCCCC2)CC1 (centres unmarked) [Compound 54] | 0.168 | 84.09 nm | 99.7% | 8.31

Row | SMILES | polydispersity [1] | size (nm) [1] | Encapsulation Efficiency [2] | Apparant Pka [3]
17 | CCCCCCCCCCCC(=O)OCC1(COCCCCCCCC(=O)OC(CCCCCCCC)CCCCCCCC)CCN(C(=O)CCN(C)C)CC1 [Compound 61] | 0.2 | 54.56 nm | 99.7% | 7.65
18 | CCCCCCCCCCCC(=O)OCC1(COC(=O)CCCCCCCCCCC)CCN(C(=O)CCCN(CCC)CCO)CC1 [Compound 36] | 0.095 | 67.83 nm | 93.2% | 7.84
19 | CCCCCCCCCCCC(=O)OCC1(COC(=O)CCCCCCCCCCC)CCN(CCCO)CC1 [Compound 18] | 0.212 | 105.9 nm | 94.0% | 7.17
20 | CCCCCCCCCCCC(=O)OCC1(COC(=O)CCCCCCCCCCC)CCN(C(=O)CCN2CCCCC2)CC1 [Compound 6] | 0.064 | 100 nm | 89.2% | 6.85
21 | CCCCCCCCC(CCCCCC)COC(=O)CCCCCC(=O)OCC1(COC(=O)CCCCCC(=O)OCC(CCCCCC)CCCCCCCC)CCN(C(=O)CCN(C)CCO)CC1 (centres unmarked) [Compound 56] | 0.284 | 83.06 nm | 101.1% | 11.73
22 | CCCCCCCCCCCC(=O)OCC1(COC(=O)CCCCCCCCCCC)CCN(C(=O)CCN2CCCCCCC2)CC1 [Compound 8] | 0.227 | 74.14 nm | 91.6% | 7.58
23 | CCCCCCCCCCCC(=O)OCC1(COC(=O)CCCCCCCCCCC)CCN(C(C)CO)CC1 (centres unmarked) [Compound 17] | 0.159 | 54.04 nm | 96.6% | 7.68
24 | CCCCCCCCCCCC(=O)OCC1(COC(=O)CCCCCCCCCCC)CCN(C(=O)CCN(CCO)CCCCC)CC1 [Compound 25] | 0.153 | 69.62 nm | 89.3% | 7.98
25 | CCCCCCCCCCCC(=O)OCC1(COC(=O)CCCCCCCCCCC)CCN(C(=O)CCN2CCCC2)CC1 [Compound 5] | 0.112 | 69.83 nm | 95.4% | 7.67
26 | CCCCCCCCC(CCCCCC)COC(=O)CCCCCC(=O)OCC1(COC(=O)CCCCCC(=O)OCC(CCCCCC)CCCCCCCC)CCN(C(=O)CCCN2CCCC2)CC1 (centres unmarked) [Compound 58] | 0.356 | 97.85 nm | 102.4% | 13.72
27 | CCCCCCCCCCCC(=O)OCC1(COC(=O)CCCCCCCCCCC)CCN(C(=O)CCN(CCCCCC)CCCCCC)CC1 [Compound 31] | 0.136 | 67.72 nm | 92.7% | 6.39
28 | CCCCCCCCCCCC(=O)OCC1(COC(=O)CCCCCCCCCCC)CCN(C(=O)CCCN(C)C)CC1 [Compound 38] | 0.104 | 73.39 nm | 93.5% | 7.85
29 | CCCCCCCCCCCC(=O)OCC1(COC(=O)CCCCCCCCCCC)CCN(C(=O)CCN(C)CCCn2ccc(N)nc2=O)CC1 [Compound 14] | 0.092 | 67.29 nm | 92.5% | 8.22
30 | CCCCCCCCC(CCCCCC)COC(=O)CCCCCC(=O)OCC1(COC(=O)CCCCCC(=O)OCC(CCCCCC)CCCCCCCC)CCN(C(=O)CCN(CC)CCO)CC1 (centres unmarked) [Compound 57] | 0.276 | 74.16 nm | 100.4% | 8.80
31 | CCCCCCCCCCCC(=O)OCC1(COC(=O)CCCCCCCCCCC)CCN(C(=O)CCN(C)CCCn2ccc(=O)[nH]c2=O)CC1 [Compound 13] | 0.127 | 57.44 nm | 95.5% | 7.09
32 | CCCCCCCCCCCC(=O)OCC1(COC(=O)CCCCCCCCCCC)CCN(C(=O)CCCN(CCO)CCCC)CC1 [Compound 37] | 0.386 | 95.98 nm | 94.9% | 6.04
